This passage reports surface tension liquid-gas, mass density and refractive index results from the NIST ThermoML archive (doi:10.1021/je0601208).

The structures appear in SMILES notation. Numbers after ± are expanded uncertainties.

The surface tension liquid-gas is the work needed to enlarge the surface of a liquid by unit area. As usually defined, the mass density is mass per unit of volume. As usually defined, the refractive index is the speed of light in vacuum divided by its phase velocity in the sample.

The conditions of data set [1]: for mass density: 101.33 kPa, Liquid.
Data set [2] in a line: refractive index (Na D-line) (dimensionless). The settings on record: 101.33 kPa, Liquid, Standard Abbe refractometry.
Data set [3] is described as follows: xn = mol fraction of the nth substance listed. Conditions: x2 = 0.
A short description of data set [4]: refractive index (Na D-line) (dimensionless); xn = mol fraction of the nth substance listed. The settings on record: 100.5 kPa, Liquid, Standard Abbe refractometry, x2 = 0.

Regarding `CCCC(=O)OCCC(C)C` [3-methylbutyl butanoate], the surface tension liquid-gas in data set [1] (288.15 K) was determined as 25.7 ± 0.6 mN/m; in data set [1] (298.15 K), 24.7 ± 0.6 mN/m; in data set [1] (308.15 K), 24 ± 0.6 mN/m; in data set [1] (318.15 K), 23.1 ± 0.6 mN/m. In data set [1] (298.15 K), the mass density came out at 858.69 ± 0.44 kg/m3. Moreover, the refractive index is 1.41259 ± 0.00034 in data set [2] (288.15 K), 1.40815 ± 0.00034 in data set [2] (298.15 K), 1.40374 ± 0.00034 in data set [2] (308.15 K) and 1.39927 ± 0.00034 in data set [2] (318.15 K).

In the case of `CC(=O)OCCC(C)C` [3-methylbutyl ethanoate], the surface tension liquid-gas is on record as 25.4 ± 0.4 mN/m in data set [1] (288.15 K), 24.3 ± 0.4 mN/m in data set [1] (298.15 K), 23.4 ± 0.4 mN/m in data set [1] (308.15 K) and 22.4 ± 0.4 mN/m in data set [1] (318.15 K). Moreover, the mass density in data set [1] (298.15 K) is listed as 867.91 ± 0.45 kg/m3. Besides, the refractive index is 1.40288 ± 0.00034 in data set [2] (288.15 K), 1.39836 ± 0.00034 in data set [2] (298.15 K), 1.39365 ± 0.00034 in data set [2] (308.15 K) and 1.38895 ± 0.00034 in data set [2] (318.15 K).

`CCO` [ethanol]: the surface tension liquid-gas in data set [1] (288.15 K) is listed as 23 ± 0.4 mN/m; in data set [1] (298.15 K), 22.3 ± 0.4 mN/m; in data set [1] (308.15 K) it was 21.5 ± 0.4 mN/m; in data set [1] (318.15 K), 20.6 ± 0.4 mN/m. In data set [1] (298.15 K), the mass density came out at 785 ± 0.24 kg/m3. In addition, the refractive index worked out at 1.36333 ± 0.00031 in data set [2] (288.15 K), 1.35941 ± 0.00031 in data set [2] (298.15 K), 1.35531 ± 0.00031 in data set [2] (308.15 K) and 1.35148 ± 0.00031 in data set [2] (318.15 K).

Turning to `CCO` [ethanol] + CC(=O)OCCC(C)C, the surface tension liquid-gas in data set [3] (288.15 K) came out at 23 ± 0.4 mN/m; in data set [3] (298.15 K), 22.3 ± 0.4 mN/m; in data set [3] (308.15 K) it was 21.5 ± 0.4 mN/m; in data set [3] (318.15 K) it was 20.6 ± 0.4 mN/m. Moreover, the refractive index in data set [4] (288.15 K) stood at 1.36333 ± 0.00031; in data set [4] (298.15 K), 1.35941 ± 0.00031; in data set [4] (308.15 K) it was 1.35531 ± 0.00031; in data set [4] (318.15 K), 1.35148 ± 0.00031.

In the case of `CCO` [ethanol] + CCCC(=O)OCCC(C)C, the surface tension liquid-gas is reported as 23 ± 0.6 mN/m in data set [3] (288.15 K), 22.3 ± 0.6 mN/m in data set [3] (298.15 K), 21.5 ± 0.6 mN/m in data set [3] (308.15 K) and 20.6 ± 0.6 mN/m in data set [3] (318.15 K). Besides, the refractive index in data set [4] (288.15 K) worked out at 1.36333 ± 0.00031; in data set [4] (298.15 K), 1.35941 ± 0.00031; in data set [4] (308.15 K), 1.35531 ± 0.00031; in data set [4] (318.15 K), 1.35148 ± 0.00031.

As to `CCO` [ethanol] + CCCCCC(=O)OCC, the surface tension liquid-gas worked out at 23 ± 0.6 mN/m in data set [3] (288.15 K), 22.3 ± 0.6 mN/m in data set [3] (298.15 K), 21.5 ± 0.6 mN/m in data set [3] (308.15 K) and 20.6 ± 0.6 mN/m in data set [3] (318.15 K). Besides, the refractive index in data set [4] (288.15 K) stood at 1.36333 ± 0.00031; in data set [4] (298.15 K), 1.35941 ± 0.00031; in data set [4] (308.15 K), 1.35531 ± 0.00031; in data set [4] (318.15 K) it was 1.35148 ± 0.00031.

In the case of `CCO` [ethanol] + CCCCCCCC(=O)OCC, the surface tension liquid-gas in data set [3] (288.15 K) was 23 ± 0.6 mN/m; in data set [3] (298.15 K), 22.3 ± 0.6 mN/m; in data set [3] (308.15 K) it was 21.5 ± 0.6 mN/m; in data set [3] (318.15 K) it was 20.6 ± 0.6 mN/m. The refractive index in data set [4] (288.15 K) is recorded as 1.36333 ± 0.00031; in data set [4] (298.15 K), 1.35941 ± 0.00031; in data set [4] (308.15 K), 1.35531 ± 0.00031; in data set [4] (318.15 K), 1.35148 ± 0.00031.

As for `CCO` [ethanol] + CCOC(=O)Cc1ccccc1, the surface tension liquid-gas in data set [3] (288.15 K) is reported as 23 ± 0.6 mN/m; in data set [3] (298.15 K), 22.3 ± 0.6 mN/m; in data set [3] (308.15 K), 21.5 ± 0.6 mN/m; in data set [3] (318.15 K), 20.6 ± 0.6 mN/m. The refractive index in data set [4] (288.15 K) is listed as 1.36333 ± 0.00031; in data set [4] (298.15 K), 1.35941 ± 0.00031; in data set [4] (308.15 K) it was 1.35531 ± 0.00031; in data set [4] (318.15 K), 1.35148 ± 0.00031.

Regarding `CCO` [ethanol] + CCOC(=O)c1ccccc1, the surface tension liquid-gas in data set [3] (288.15 K) was determined as 23 ± 0.6 mN/m; in data set [3] (298.15 K), 22.3 ± 0.6 mN/m; in data set [3] (308.15 K), 21.5 ± 0.6 mN/m; in data set [3] (318.15 K) it was 20.6 ± 0.6 mN/m. Further, the refractive index in data set [4] (288.15 K) is recorded as 1.36333 ± 0.00031; in data set [4] (298.15 K), 1.35941 ± 0.00031; in data set [4] (308.15 K), 1.35531 ± 0.00031; in data set [4] (318.15 K), 1.35148 ± 0.00031.

With `CCOC(=O)c1ccccc1` [ethyl benzoate], the surface tension liquid-gas in data set [1] (288.15 K) came out at 35.7 ± 0.7 mN/m; in data set [1] (298.15 K), 34.6 ± 0.7 mN/m; in data set [1] (308.15 K), 33.3 ± 0.7 mN/m; in data set [1] (318.15 K) it was 32.5 ± 0.7 mN/m. In data set [1] (298.15 K), the mass density came to 1041.42 ± 0.14 kg/m3. Besides, the refractive index in data set [2] (288.15 K) amounted to 1.5076 ± 0.00032; in data set [2] (298.15 K) it was 1.50328 ± 0.00032; in data set [2] (308.15 K), 1.49863 ± 0.00032; in data set [2] (318.15 K) it was 1.49391 ± 0.00032.

For the compound `CCCCCC(=O)OCC` [ethyl hexanoate], the surface tension liquid-gas in data set [1] (288.15 K) came to 26.4 ± 0.6 mN/m; in data set [1] (298.15 K) it was 25.4 ± 0.6 mN/m; in data set [1] (308.15 K), 24.5 ± 0.6 mN/m; in data set [1] (318.15 K), 23.6 ± 0.6 mN/m. The mass density in data set [1] (298.15 K) was found to be 866.29 ± 0.21 kg/m3. The refractive index amounted to 1.4095 ± 0.00032 in data set [2] (288.15 K), 1.40504 ± 0.00032 in data set [2] (298.15 K), 1.40055 ± 0.00032 in data set [2] (308.15 K) and 1.39597 ± 0.00032 in data set [2] (318.15 K).

Turning to `CCCCCCCC(=O)OCC` [ethyl octanoate], the surface tension liquid-gas in data set [1] (288.15 K) was found to be 27.2 ± 0.6 mN/m; in data set [1] (298.15 K), 26.4 ± 0.6 mN/m; in data set [1] (308.15 K), 25.5 ± 0.6 mN/m; in data set [1] (318.15 K), 24.7 ± 0.6 mN/m. Further, the mass density in data set [1] (298.15 K) turned out to be 862.15 ± 0.41 kg/m3. In addition, the refractive index in data set [2] (288.15 K) was 1.41991 ± 0.00033; in data set [2] (298.15 K) it was 1.4156 ± 0.00033; in data set [2] (308.15 K), 1.41137 ± 0.00033; in data set [2] (318.15 K), 1.40702 ± 0.00033.

Regarding `CCOC(=O)Cc1ccccc1` [ethyl phenylacetate], the surface tension liquid-gas in data set [1] (288.15 K) is on record as 35.9 ± 0.7 mN/m; in data set [1] (298.15 K) it was 34.6 ± 0.7 mN/m; in data set [1] (308.15 K) it was 33.5 ± 0.7 mN/m; in data set [1] (318.15 K), 32.8 ± 0.7 mN/m. The mass density in data set [1] (298.15 K) is reported as 1026.96 ± 0.35 kg/m3. Further, the refractive index came out at 1.49971 ± 0.00034 in data set [2] (288.15 K), 1.49513 ± 0.00034 in data set [2] (298.15 K), 1.49063 ± 0.00034 in data set [2] (308.15 K) and 1.48583 ± 0.00034 in data set [2] (318.15 K).
